Measurements reported in paper PMC6022228, “Introducing novel potent anticancer agents of 1H-benzo[f]chromene scaffolds, targeting c-Src kinase enzyme with MDA-MB-231 cell line anti-invasion effect” (Journal of Enzyme Inhibition and Medicinal Chemistry, 2018).
Values after ≈ are worked out from the molar mass of the structure shown. Values joined by “and” are separate entries in the source; they are usually repeats but may differ in a detail not shown here. Identical values can stand only once. Like-named read-outs stand apart in the source and are kept apart here.

Assays:
MCF-7 = assay: MTT viability assay, MCF-7 (breast cancer); assay type: cell-based; settings: Homo sapiens, MCF7, 24 h incubation, mean ± standard error
Procedure: (§1) Compounds 4a–h and 6a–h were initially evaluated for in vitro antitumour activity against three different human cell lines: MCF-7, HCT-116, and HepG-2, and only the representative active cytotoxic compounds were further evaluated against the normal HFL-1 cell line. The in vitro cytotoxicity evaluation was performed at the Regional Center for Mycology & Biotechnology (RCMP), Al-Azhar University under different concentrations (50, 25, 12.5, 6.25, 3.125, 1.56, and 0 µg/mL); Vinblastine and Doxorubicin are used as reference cytotoxic compounds. The measurements of cell growth and the in vitro cytotoxicity evaluation were determined using viability assay as described in literature[31–33] and the result was cited in Table 1 and Figure 2.
(§2) The in vitro cytotoxic evaluation of the prepared compounds 4a–h and 6a–h was performed against MCF-7 (breast cancer), HCT-116 (human colon cancer), HepG-2 (liver cancer), and HFL-1(normal fibroblast lung) using the 3-(4,5-dimethylthiazol-2-yl)-2,5-diphenyl tetrazolium bromide (MTT) colorimetric assay as described in literature. […] The results were expressed as growth inhibitory concentration (IC50) values, which represent the compounds’ concentrations required to produce a 50% inhibition of the cell growth after 24 h of incubation, compared to the untreated controls as shown in Table 1 and Figure 2.

HCT-116 = assay: MTT viability assay, HCT-116 (human colon cancer); assay type: cell-based; settings: 24 h incubation, mean ± standard error
Procedure: as §1, §2

HepG-2 = assay: MTT viability assay, HepG-2 (liver cancer); assay type: cell-based; settings: Homo sapiens, HepG2, 24 h incubation, mean ± standard error
Procedure: as §1, §2

HFL-1 = assay: MTT viability assay, HFL-1 (normal fibroblast lung); assay type: cell-based; settings: Homo sapiens, HFL1, 24 h incubation, normal cell line, mean ± standard error
Procedure: as §1, §2

MDA-MB-231 cell line = assay: Cell invasion assay; assay type: cell-based; settings: Homo sapiens
Procedure: The cell invasion assay was performed by Reaction Biology Corporation, One Great Valley Parkway, PA. All compounds were dissolved in DMSO and tested for their ability to cell invasion assay. Compounds 4c, 6e, and reference compound bosutinib were purchased from Sellechem (Houston, TX). Corning Bio Coat Fluoro Blok Insert System-96-well plates were purchased from Corning (Corning Incorporated, Tewksbury, MA). Calcein AM labelling reagent was purchased from Molecular Probes (Eugene, Oregon). MDA-MB-231 cell line was purchased from American Type Culture Collection (Manassas, VA). MDA-MB-231 cells were grown in DMEM medium supplemented with 10% foetal bovine serum (FBS), 100 µg/mL of penicillin, and 100 µg/mL of streptomycin. Cultures were maintained at 37 °C in a humidified atmosphere of 5% CO2 and 95% air-following incubation; medium was carefully removed from the apical chambers. The insert system was transferred into a second 96-square well plate containing 200 µl/well of 4 µg/mL Calcein AM in HBSS. The plates were incubated for 1 h at 37 °C, 5% CO2. Fluorescence of invaded cells was read at wavelengths of 492/535 nm (Ex/Em) from bottom reading using Envision 2104 Multilabel Reader (PerkinElmer, Santa Clara, CA). The IC50 curves were plotted and IC50 values were calculated using the Graph Pad Prism 4 program for windows (Graph Pad software, San Diego California. www.graphpad.com) based on a sigmoidal dose-response equation.
Tumour invasion is a common feature of triple-negative breast cancers. […] The invasion process has become an important prerequisite for cancer progression and metastasis. […] A bosutinib drug was used as a control ant-invasive agent. […] The obtained data might confirm that the cytotoxicity of novel molecules led to the death of the cancer cells and stopped the metastatic processes.

c-Src kinase = target: T1, c-Src kinase (Homo sapiens, UniProt P12931); assay: c-Src kinase assay (HTScan Src Kinase Assay Kit); assay type: biochemical; settings: GST-Src kinase, triplicate; read-out: Inhibition of c-Src kinase activity, IC50
T1 construct: purchased Cell Signaling Technology (Danvers, MA) 7776
T1 sequence (P12931 whole entry): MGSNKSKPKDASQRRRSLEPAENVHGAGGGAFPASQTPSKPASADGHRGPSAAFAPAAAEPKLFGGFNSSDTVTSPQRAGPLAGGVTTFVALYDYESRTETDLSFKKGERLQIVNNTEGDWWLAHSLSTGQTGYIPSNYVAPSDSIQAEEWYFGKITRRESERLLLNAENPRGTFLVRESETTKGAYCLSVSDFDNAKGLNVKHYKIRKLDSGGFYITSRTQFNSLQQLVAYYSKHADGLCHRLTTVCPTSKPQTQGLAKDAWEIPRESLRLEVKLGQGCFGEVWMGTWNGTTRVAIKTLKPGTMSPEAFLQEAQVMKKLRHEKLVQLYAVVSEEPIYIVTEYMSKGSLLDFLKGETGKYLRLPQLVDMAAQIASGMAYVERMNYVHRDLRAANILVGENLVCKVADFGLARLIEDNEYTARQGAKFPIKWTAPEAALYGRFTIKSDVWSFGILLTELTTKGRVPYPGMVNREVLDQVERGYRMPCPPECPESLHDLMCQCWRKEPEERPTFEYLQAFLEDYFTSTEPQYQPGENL
Procedure: Streptavidin-coated plates were purchased from Pierce (Rockford, IL). […] The reaction mixture was incubated for 30 min at room temperature. The kinase reaction was stopped with the addition of 50 µL of 50 mM EDTA (pH 8.0). […] At the end of the incubation, the wells were washed three times with 200 µL of 0.05% Tween-20 in PBS buffer (PBS/T). After that to each well was added 100 µL of phosphotyrosine antibody (P-Tyr-100) (1:1000 dilution in PBS/T with 1% BSA) and the wells were incubated for another 60 min. After washing three times with 0.05% Tween-20 in PBS/T, the wells were incubated with 100 µL secondary anti-mouse IgG antibody, which was HRP-conjugated (1:500 dilution in PBS/T with 1% BSA) for next 30 min at room temperature. The wells were washed five times with 0.05% Tween-20 in PBS and then were incubated with 100 µL of 3,3′,5,5′-tetramethylbenzidine dihydrochloride substrate for 5 min. […] IC50 values of the compounds were calculated using ORIGIN 6.0 (Origin Lab Corporation, Northampton, MA) software. […] All the experiments were carried out in triplicate.

[1] = tested on: caspases 3/7 in MDA-MB-231 cells; assay: Caspase-Glo 3/7 activity assay; assay type: cell-based; settings: Homo sapiens, 24 h treatment, 10 concentrations, read-out: Caspase-Glo 3/7 activity assay, MDA-MB-231 cell line, IC50
Procedure: The Caspase-Glo 3/7 activity assay was performed by Reaction Biology Corporation, One Great Valley Parkway, PA. Examined compounds 4c, 4e, 4h, 6d, and 6e were dissolved in DMSO as 20 mM stock and tested for their ability to Caspase-Glo 3/7 activity assay. […] Caspase-Glo 3/7 activity assay reagent was purchased from Promega (Madison, WI). MDA-MB-231 cell line was provided by ATCC. MDA-MB-231 cell line culture conditions: DMEM with 10% FBS. 100 µg/mL penicillin and 100 µg/mL streptomycin were added to the culture media. Cultures were maintained at 37 °C in a humidified atmosphere of 5% CO2 and 95% air.
Caspases are […] that promote apoptosis. Caspases are vital biochemical features of apoptotic signalling. […] To determine whether the cell growth inhibition in response to the benzochromene derivatives was mediated by apoptosis and was caspase dependent, MDA-MB-231 cells were treated with 10 different concentrations of the target compounds for 24 h.

| SMILES | IC50 (MCF-7) [µg/mL] | melting point [°C] | IC50 (HCT-116) [µg/mL] | IC50 (HepG-2) [µg/mL] | IC50 (HFL-1) [µg/mL] | IC50 (MDA-MB-231 cell line; Table 2, read-out: IC50 anti-invasion, MDA-MB-231 breast cancer cells) [nM] | IC50 (MDA-MB-231 cell line; read-out: IC50 anti-invasion activity, MDA-MB-231) [nM] | IC50 (c-Src kinase) | IC50 [1] [nM] |
| --- | --- | --- | --- | --- | --- | --- | --- | --- | --- |
| N#CC1=C(N)Oc2ccc3cc(Br)ccc3c2C1c1ccccc1 (stereo not drawn) [Compound 4a, 3-Amino-8-bromo-1-phenyl-1H-benzo[f]chromene-2-carbonitrile] | 0.9 ± 0.29 (≈ 2.39 µM) | 245 to 246 | 1.2 ± 0.97 (≈ 3.18 µM) | 0.7 ± 0.5 (≈ 1.86 µM) |  |  |  |  |  |
| N#CC1=C(N)Oc2ccc3cc(Br)ccc3c2C1c1ccc(F)cc1 (stereo not drawn) [Compound 4b, 3-Amino-8-bromo-1-(4-fluorophenyl)-1H-benzo[f]chromene-2-carbonitrile] | 5.2 ± 0.03 (≈ 13.2 µM) | 242 to 243 | 1 ± 0.12 (≈ 2.53 µM) | 0.8 ± 0.12 (≈ 2.02 µM) |  |  |  |  |  |
| N#CC1=C(N)Oc2ccc3cc(Br)ccc3c2C1c1ccc(Cl)cc1 (stereo not drawn) [Compound 4c, 3-Amino-8-bromo-1-(4-chlorophenyl)-1H-benzo[f]chromene-2-carbonitrile] | 0.5 ± 0.23 (≈ 1.21 µM) | 260 to 261 | 0.7 ± 0.11 (≈ 1.7 µM) | 1.1 ± 0.12 (≈ 2.67 µM) | 15.2 ± 0.1 (≈ 36.9 µM) | 10800 | 10500 | 9 to 329 nM and 89 nM | 22600 |
| N#CC1=C(N)Oc2ccc3cc(Br)ccc3c2C1c1ccc(Br)cc1 (stereo not drawn) [Compound 4d, 3-Amino-8-bromo-1-(4-bromophenyl)-1H-benzo[f]chromene-2-carbonitrile] | 2.5 ± 0.14 (≈ 5.48 µM) | 250 to 251 | 0.5 ± 0.35 (≈ 1.1 µM) | 1.8 ± 0.2 (≈ 3.95 µM) |  |  |  |  |  |
| Cc1ccc(C2C(C#N)=C(N)Oc3ccc4cc(Br)ccc4c32)cc1 (stereo not drawn) [Compound 4e, 3-Amino-8-bromo-1-(4-methylphenyl)-1H-benzo[f]chromene-2-carbonitrile] | 2.5 ± 0.18 (≈ 6.39 µM) | 215 to 216 | 0.7 ± 0.25 (≈ 1.79 µM) | 0.9 (≈ 2.3 µM) | 22.4 ± 0.21 (≈ 57.2 µM) |  |  | 9 nM | 19500 |
| COc1ccc(C2C(C#N)=C(N)Oc3ccc4cc(Br)ccc4c32)cc1 (stereo not drawn) [Compound 4f, 3-Amino-8-bromo-1-(4-methoxyphenyl)-1H-benzo[f]chromene-2-carbonitrile] | 3.8 ± 0.36 (≈ 9.33 µM) | 234 to 235 | 44.9 ± 0.14 (≈ 110 µM) | 4.4 ± 0.05 (≈ 10.8 µM) |  |  |  |  |  |
| COc1ccc(C2C(C#N)=C(N)Oc3ccc4cc(Br)ccc4c32)c(OC)c1 (stereo not drawn) [Compound 4g, 3-Amino-8-bromo-1-(2,4-dimethoxyphenyl)-1H-benzo[f]chromene-2-carbonitrile] | 3.6 ± 0.01 (≈ 8.23 µM) | 220 to 221 | 3.7 ± 0.15 (≈ 8.46 µM) | 2.8 ± 0.17 (≈ 6.4 µM) |  |  |  |  |  |
| COc1ccc(C2C(C#N)=C(N)Oc3ccc4cc(Br)ccc4c32)cc1OC (stereo not drawn) [Compound 4h, 3-Amino-8-bromo-1-(3,4-dimethoxyphenyl)-1H-benzo[f]chromene-2-carbonitrile] | 0.66 ± 0.04 (≈ 1.51 µM) | 200 to 201 | 4.1 ± 0.16 (≈ 9.38 µM) | 11 ± 0.02 (≈ 25.2 µM) | 12.9 ± 0.13 (≈ 29.5 µM) |  |  | 214 to 329 nM and 214 nM | 31500 |
| COc1ccc2c3c(ccc2c1)OC(N)=C(C#N)C3c1ccccc1 (stereo not drawn) [Compound 6a, 3-Amino-1-phenyl-8-methoxy-1H-benzo[f]chromene-2-carbonitrile] | 2.7 ± 0.2 (≈ 8.22 µM) | 237 to 238 | 2.1 ± 0.23 (≈ 6.4 µM) | 11.2 ± 0.18 (≈ 34.1 µM) |  |  |  |  |  |
| COc1ccc2c3c(ccc2c1)OC(N)=C(C#N)C3c1ccc(F)cc1 (stereo not drawn) [Compound 6b, 3-Amino-1-(4-flourophenyl)-8-methoxy-1H-benzo[f]chromene-2-carbonitrile] | 4.4 ± 0.05 (≈ 12.7 µM) | 256 to 257 | 4.9 ± 0.01 (≈ 14.1 µM) | 0.5 ± 0.01 (≈ 1.44 µM) |  |  |  |  |  |
| COc1ccc2c3c(ccc2c1)OC(N)=C(C#N)C3c1ccc(Cl)cc1 (stereo not drawn) [Compound 6c, 3-Amino-1-(4-chlorophenyl)-8-methoxy-1H-benzo[f]chromene-2-carbonitrile] | 3.1 ± 0.29 (≈ 8.54 µM) | 247 to 248 | 2.5 ± 0.97 (≈ 6.89 µM) | 0.3 ± 0.08 (≈ 0.827 µM) |  |  |  |  |  |
| COc1ccc2c3c(ccc2c1)OC(N)=C(C#N)C3c1ccc(Br)cc1 (stereo not drawn) [Compound 6d, 3-Amino-1-(4-bromophenyl)-8-methoxy-1H-benzo[f]chromene-2-carbonitrile] | 2 ± 0.25 (≈ 4.91 µM) | 261 to 262 | 0.9 ± 0.58 (≈ 2.21 µM) | 0.7 ± 0.13 (≈ 1.72 µM) | 35.5 ± 0.22 (≈ 87.2 µM) |  |  | 214 to 329 nM and 329 nM | 25600 |
| COc1ccc(C2C(C#N)=C(N)Oc3ccc4cc(OC)ccc4c32)cc1 (stereo not drawn) [Compound 6f, 3-Amino-8-methoxy-1-(4-methoxyphenyl)-1H-benzo[f]chromene-2-carbonitrile] | 0.6 ± 0.08 (≈ 1.67 µM) | 222 to 223 | 3.8 ± 0.14 (≈ 10.6 µM) | 29.3 ± 0.12 (≈ 81.8 µM) |  |  |  |  |  |
| COc1ccc(C2C(C#N)=C(N)Oc3ccc4cc(OC)ccc4c32)c(OC)c1 (stereo not drawn) [Compound 6g, 3-Amino-1-(2,4-dimethoxyphenyl)-8-methoxy-1H-benzo[f]chromene-2-carbonitrile] | 16 ± 0.92 (≈ 41.2 µM) | 210 to 211 | 10.9 ± 0.5 (≈ 28.1 µM) | 9 ± 0.3 (≈ 23.2 µM) |  |  |  |  |  |
| COc1ccc2c3c(ccc2c1)OC(N)=C(C#N)C3c1ccc(OC)c(OC)c1 (stereo not drawn) [Compound 6h, 3-Amino-1-(3,4-dimethoxyphenyl)-8-methoxy-1H-benzo[f]chromene-2-carbonitrile] | 41.1 ± 0.25 (≈ 106 µM) | 200 to 201 | 13.9 ± 0.3 (≈ 35.8 µM) | 30.7 ± 0.5 (≈ 79 µM) |  |  |  |  |  |
| COc1cccc2c1C(=O)c1c(O)c3c(c(O)c1C2=O)C[C@@](O)(C(=O)CO)C[C@@H]3O[C@H]1C[C@H](N)[C@H](O)[C@H](C)O1 [Doxorubicin, reference compound] | 0.4 ± 0.01 (≈ 0.736 µM) |  | 0.5 ± 0.015 (≈ 0.92 µM) | 0.9 ± 0.04 (≈ 1.66 µM) |  |  |  |  |  |
| CN[C@@H]1C[C@H]2O[C@@](C)([C@@H]1OC)n1c3ccccc3c3c4c(c5c6ccccc6n2c5c31)C(=O)NC4 [Staurosporine, staurosporine, reference compound] |  |  |  |  |  |  |  |  | 68.5 |
| CC[C@]1(O)C[C@@H]2CN(CCc3c([nH]c4ccccc34)[C@@](C(=O)OC)(c3cc4c(cc3OC)N(C)[C@H]3[C@@](O)(C(=O)OC)[C@H](OC(C)=O)[C@]5(CC)C=CCN6CC[C@]43[C@@H]65)C2)C1 [Vinblastine, reference compound] | 6.1 ± 0.03 (≈ 7.52 µM) |  | 2.6 ± 0.08 (≈ 3.21 µM) | 4.6 ± 0.01 (≈ 5.67 µM) |  |  |  |  |  |
